A word on the melting point: it is the temperature, or range, at which the solid turns liquid.

In the case of `CCCCCCCCCCCCCCCCc1cc(OC)nc(N(C)C)n1`, the melting point is 49 to 50 °C.
To `CC1CN(c2ccc(C(=O)C(F)(F)F)cc2)N=C1NC(=O)C(F)(F)F` (stereo unspecified) belongs 203 to 204 °C; to `O=S(=O)(c1cc(F)ccc1F)N1CCNc2ncc(I)cc21`, 187 to 188 °C; to `O=C(O)Cc1cccc(C(=O)c2ccc(OCc3ccc4ccccc4c3)cc2)c1`, 150 to 152 °C.
The figure for `Nc1nc(Nc2ccc(S(N)(=O)=O)cc2)sc1C(=O)c1ccc(C(=O)Oc2ccccc2)cc1` is more than 300 °C; for `C[C@H](C(=O)O)n1ccn(-c2ccc(OCC(F)(F)C(F)F)cc2)c1=O` it is 149 to 151 °C; for `c1ccc(-c2cc3cnccc3[nH]2)cc1` it is 276 to 278 °C.
To `CCNC(=O)NNC(=O)c1ccc(Cl)cc1` belongs 237 to 239 °C; to `CCOC(=O)c1cn(CC)c2nc(C=O)c(OCC)cc2c1=O`, 169 to 170 °C; to `O=C1N(Cc2ccco2)Cc2cnc(Nc3ccccc3)nc2N1c1cccc(CCO)c1`, 195 °C.
As to `COc1cc2c(c(Cl)c1Cl)C(=O)C(C)(C)C2`, the melting point was 142 °C.
The figure for `Cc1nc(N2C(=O)N(Cc3ccc(F)cc3)CC2O)sc1C(=O)NCc1cccnc1` (stereo unspecified) is 64 to 66 °C.
Take `OCC1=NOC(c2ccccc2)C1` (stereo unspecified): the melting point lay within 73 to 74 °C.
`Cc1cc(C2=C(/C=C/[C@H]3C[C@H](O)CC(=O)O3)C(C)(C)CC3(C2)SCCCS3)ccc1F` (relative stereo) came in with a melting point of 136 to 138 °C.
`CN1Cc2c(S(=O)(=O)Cl)cc3[nH]c(=O)c(=O)[nH]c3c2C1` returned a melting point of more than 300 °C.
In turn, `CC(=O)NCC1CN(c2ccc(N3CCC(n4cc(C5(C)CO5)nn4)CC3)c(F)c2)C(=O)O1` (stereo unspecified) yielded a melting point of 158 to 160 °C.
In turn, `CC(C)(C)C(=O)C(=C1SCCS1)n1cncn1` yielded a melting point of 141 °C.
To `CCCCCCSc1sc(-c2cc[nH]n2)c2c1C(=O)CC(C)(C)C2` belongs 134 to 137 °C.
Consider `N#CCN1CCOC(c2ccccc2)(c2ccccc2)CC1`, for which the melting point fell in the range of 119 to 121 °C.
`CCCc1nc2c(N)nc3cc(-c4cccc(C(=O)N5CCOCC5)c4)ccc3c2s1` showed a melting point of 190 to 193 °C.
In turn, `CCCCCCCCc1ccc(OCC(=O)Cn2ccc3cc(C(=O)O)ccc32)cc1` returned a melting point of 122 to 124 °C.
Molecule `COc1cc(C(C)=O)ccc1OCCCN1CCC(C(O)(c2cccc(F)c2)c2cccc(F)c2)CC1` yielded a melting point of 149 to 151 °C.
Turning to `CN(C)c1ncc(-c2cccc(-n3cnc4cc(-n5cccc5)ccc43)c2)cn1`, the melting point is 237 to 238 °C.
To `CC(C)N(Cc1coc(-c2ncn3c2CN(C)C(=O)c2c(Cl)cccc2-3)n1)C(C)C` belongs 164 to 166 °C; to `O[C@@H]1CN(Cc2ccccc2)C[C@H]1Oc1ccccc1` (relative stereo), 88.5 to 90 °C.
The figure for `C/C(=C\c1ccc(OC(C)C)cc1Oc1ncc(C(F)(F)F)cc1Cl)C(=O)NS(=O)(=O)NCC1CCCO1` (stereo unspecified) is 125 to 126 °C; for `Nc1ncnc2c1ncn2C1CCC(O)C1O` (stereo unspecified) it is 201 to 202 °C; for `CCCn1c(=O)c2[nH]c(/C=C/c3cccc(OC)c3OC)nc2n(CCC)c1=O` it is 236 °C.
In turn, `Nc1nc2c(c3c1ncn3Cc1cc(-c3ccc(F)cc3)no1)NCCC2` displayed a melting point of 227 to 228 °C.
The molecule `BrCc1ccccc1CCc1ccc(Br)cc1` gave a melting point of 63 to 75 °C.
`COC(=O)CCc1ccc(CNC(=O)C2Cc3ccccc3N2S(=O)(=O)c2ccc(-c3cccc(C(F)(F)F)c3)cc2)cc1` (stereo unspecified) registered a melting point of 61 °C.
Molecule `O=C1[C@@H]2[C@H](O)CCN2C(=O)N1c1ccc([N+](=O)[O-])c2ccccc12` (relative stereo) showed a melting point of 255 to 257 °C.
Molecule `CC1(C)COC(c2ccc3c(c2)COC3=O)=N1` yielded a melting point of 109 to 111 °C.
In the case of `CCn1cnc2c(Cl)nc(Cl)nc21`, the melting point was in the range of 100 to 103 °C.
Molecule `CCCc1nc2c(N)nc3ccccc3c2n1CCCC(C)N(OC)C(C)=O` (stereo unspecified) showed a melting point of 140 to 142 °C.
`CCCCCCCCCCCCCCCCCCNC(=O)NCCN` gave a melting point of 108 to 127 °C.
`CC(CCC(=O)O)(c1ccc(OCc2ccc3ccc(Cl)cc3n2)cc1)c1ccc(OCc2ccc3ccc(Cl)cc3n2)cc1` displayed a melting point of 88 to 90 °C.
For the molecule `CC1=c2c(cc3c(c2C)C=C(C(=O)OCc2ccccc2)N=3)N=C1C(=O)OCc1ccccc1`, the melting point is 197 to 200 °C.
Consider `CCCSc1nc(Br)c(Br)n1Cc1cc2c(cc1Cl)OCO2`, for which the melting point stood at 116 °C.
The figure for `Cn1nnc2c(N3CCN(Cc4ccccc4)CC3)ncnc21` is 91 to 92 °C.
`COc1ccc(NN=C(Sc2cc(C)ccc2C)C(C)=O)cc1`: the melting point lay in the range of 131 to 134 °C.
The molecule `NS(=O)(=O)c1ccc(-c2noc(-c3cnn4c(C5CC5)cc(-c5ccc(C(F)(F)F)cc5)nc34)n2)s1` registered a melting point of 290 °C.
The figure for `COC(=O)CCc1cc2cc(Cl)ccc2n1S(=O)(=O)c1cccc2ccccc12` is 88 to 93 °C.
In the case of `CC(C)(C)OC(=O)Nc1cc(OCc2ccccc2)c(OCc2ccccc2)cn1`, the melting point stood at 163 °C.
With `COc1cccc(OC)c1C(=O)Nc1cc(C(C)(C)C)ns1`, the melting point was 266 to 267 °C.
To `NCc1ccc(CC(=O)Nc2cccc(C(=O)NCCC(=O)O)c2)cc1` belongs 108 to 109 °C; to `CCc1cc(CC)nc(S)n1`, 82 to 84.5 °C.
`N#Cc1nc2ccccc2[nH]1` had a melting point of 268 °C.
As for `COc1cc(N2CCC(N3CC[C@@H](O)C3)CC2)ccc1[N+](=O)[O-]`, the melting point was in the range of 137 to 139 °C.
Turning to `CCNc1nc2ccc(CCc3ccc(CN4CCCCC4)o3)cc2o1`, the melting point fell in the range of 98 to 100 °C.
Turning to `O=C(OC(=O)c1ccc([N+](=O)[O-])cc1S(=O)(=O)O)c1ccc([N+](=O)[O-])cc1S(=O)(=O)O`, the melting point lay within 110 to 116 °C.
In turn, `COC(=O)C1CCCN(COS(C)(=O)=O)c2c1cc(OCc1ccccc1)c1ccccc21` (stereo unspecified) registered a melting point of 130 to 132 °C.
Molecule `Cc1cc(C(F)(F)F)c(-c2ccc(C[C@H](NC(=O)c3c(Cl)cccc3Cl)C(=O)O)cc2)c(=O)n1C` showed a melting point of 238 to 240 °C.
On to `COc1ccc(C(C)N(C)CCCOc2ccc(S(=O)(=O)c3ncc(-c4ccccc4)n3-c3ccccc3)cc2)cc1OC` (stereo unspecified), for which the melting point stood at 162 °C.
`COc1ccc2c3c(c(=O)oc2c1)CN(Cc1ccccn1)CC3`: the melting point is 140 to 142 °C.
In the case of `Cc1ccc(S(=O)(=O)N2CCC[C@H]2C(=O)N[C@@H](Cc2ccc(OCCCN3CCN(C)CC3)cc2)C(=O)O)cc1`, the melting point lay within 80 to 83 °C.
In turn, `O=C(c1c(O)c2ccccc2c2nc3ccccc3nc12)N1CCOCC1` displayed a melting point of 223 to 225 °C.
As to `COC(=O)c1cc(N2C(=O)C3C4CC4CN3C2=O)c(F)cc1Cl` (stereo unspecified), the melting point was 59 to 62 °C.
To `CNC(=O)[C@@H](O)[C@H](Sc1cc(C)ccc1N)c1ccc(C)cc1` belongs 168 to 170 °C.
Turning to `C=CCN(c1ncnc2c1ncn2CCCCCCCCC(=O)O)C1CCCCC1`, the melting point lay in the range of 100 to 102 °C.
To `Nc1c(Cl)cc(C(O)CNCCCCCCOCCCCCCc2ccc3ccccc3n2)cc1Cl` (stereo unspecified) belongs 62.3 to 64.7 °C.

Source of the values: a melting point compilation (Tetko et al.; mined from patent text by program, amines drawn as free bases though some values may be those of a salt).
